In patent publication US9408391B2, “Fungicide composition comprising a tetrazolyloxime derivative and a thiazolylpiperidine derivative” (BAYER INTELLECTUAL PROPERTY GMBH, priority 2010, dated 2016):
Where two headings read alike, the source gives them in different places.

Legend:
[1] = test system: Phytophthora infestans; format: in vivo; settings: tomato plants, preventive spray, evaluated 3 days after inoculation
[2] = test system: Venturia inaequalis; test: Venturia test (apples)/preventive; settings: apple plants, preventive spray, 100 ppm a.i., evaluated 10 days after inoculation
Description: Venturia Test (Apples)/Preventive
Solvent: 24,5 parts by weight of acetone • 24,5 parts by weight of dimethylacetamide
Emulsifier: part by weight of alkylaryl polyglycol ether
After the spray coating has dried on the plants are inoculated with an aqueous conidia suspension of the causal agent of apple scab (Venturia inaequalis) and then remain for 1 day in an incubation cabinet at approximately 20° C. and a relative atmospheric humidity of 100%.
The plants are then placed in a greenhouse at approximately 21° C. and a relative atmospheric humidity of approximately 90%.
The test is evaluated 10 days after the inoculation.

Structure (SMILES): Cn1nnnc1/C(=N\OCc1cccc(NC(=O)OC(C)(C)C)n1)c1ccccc1 [(A2)]
- Efficacy in % found ([1]; 1 ppm a.i.): 46%
- Efficacy in % found [2]: 22%

Structure (SMILES): Cc1cc(C(F)(F)F)nn1CC(=O)N1CCC(c2nc(C3=NOC(c4c(F)cccc4F)C3)cs2)CC1 (stereo not shown) [(B2), 1-(4-{4-[5-(2,6-difluorophenyl)-4,5-dihydro-1,2-oxazol-3-yl]-1,3-thiazol-2-yl}piperidin-1-yl)-2-[5-methyl-3-(trifluoromethyl)-1H-pyrazol-1-yl]ethanone]
- Efficacy in % found ([1]; 0.01 ppm a.i.): 30%
- Efficacy in % found [2]: 0%
